Activity calls are given as the source filed them. The calls are words filed in the database; no cut-off is given here.
Assays:
[1] = Dissociation constant, pKa of the compound; type: physicochemical
Homo sapiens [2] = organism: Homo sapiens; experiment: Binding affinity to alpha-chymotrypsin (unknown origin) at 1 mM at pH 5.8 by 11B-NMR analysis in presence of L-sorbose
Homo sapiens [3] = organism: Homo sapiens; experiment: Inhibition of alpha-chymotrypsin (unknown origin) using succinyl-Ala-Ala-Pro-Phe-para-nitroanilide as substrate assessed as residual activity at 25 uM after 10 mins in presence of L-fructose relative to control
Homo sapiens [4] = organism: Homo sapiens; experiment: Inhibition of alpha-chymotrypsin (unknown origin) using succinyl-Ala-Ala-Pro-Phe-para-nitroanilide as substrate assessed as residual activity at 25 uM after 10 mins in presence of D-fructose relative to control
Homo sapiens [5] = organism: Homo sapiens; experiment: Binding affinity to alpha-chymotrypsin (unknown origin) at 1 mM at pH 5.8 by 11B-NMR analysis in presence of D-fructose
Homo sapiens [6] = organism: Homo sapiens; experiment: Inhibition of alpha-chymotrypsin (unknown origin) using succinyl-Ala-Ala-Pro-Phe-para-nitroanilide as substrate assessed as residual activity at 25 uM after 10 mins in presence of D-glucose relative to control
Homo sapiens [7] = organism: Homo sapiens; experiment: Binding affinity to alpha-chymotrypsin (unknown origin) at 5 mM by [1H] waterLOGSY NMR analysis in presence of D-fructose
[8] = Inhibition of alpha-chymotrypsin (unknown origin); design: species or system Homo sapiens
Homo sapiens [9] = organism: Homo sapiens; experiment: Binding affinity to alpha-chymotrypsin (unknown origin) at 5 mM by [1H] waterLOGSY NMR analysis in presence of L-fructose
Homo sapiens [10] = organism: Homo sapiens; experiment: Binding affinity to alpha-chymotrypsin (unknown origin) at 1 mM at pH 5.8 by 11B-NMR analysis in presence of D-sorbose
Homo sapiens [11] = organism: Homo sapiens; experiment: Binding affinity to alpha-chymotrypsin (unknown origin) at 1 mM at pH 5.8 by 11B-NMR analysis in presence of L-fructose
Homo sapiens [12] = organism: Homo sapiens; experiment: Inhibition of alpha-chymotrypsin (unknown origin) using succinyl-Ala-Ala-Pro-Phe-para-nitroanilide as substrate assessed as residual activity at 25 uM after 10 mins in presence of L-glucose relative to control
Homo sapiens [13] = organism: Homo sapiens; experiment: Binding affinity to alpha-chymotrypsin (unknown origin) at 1 mM at pH 5.8 by 11B-NMR analysis
[14] = Inhibition of Escherichia coli beta-lactamase AmpC

Row | SMILES | pKa [1] | Activity (Homo sapiens [5]) | Activity (Homo sapiens [7]) | IC50 [8] [µM] | Activity (Homo sapiens [9]) | also measured
1 | OB(O)c1ccc2ccccc2c1 | 8.88 |  |  |  |  | 
2 | OB(O)O [BORIC ACID] | 10 |  |  |  |  | 
3 | CCB(O)O | 10 |  |  |  |  | 
4 | OB(O)c1ccc(O)cc1 | 10 |  |  |  |  | 

Second part, led by results:

Row | pKa [1] | Activity (Homo sapiens [5]) | Activity (Homo sapiens [7]) | IC50 [8] [µM] | Activity (Homo sapiens [9]) | SMILES | also measured
5 | 7.44 | Active | Active | 5 | inactive | OB(O)c1cc2ccccc2s1 | Activity (Homo sapiens [2]): Active; Activity (Homo sapiens [3]): 97%; Activity (Homo sapiens [4]): 78%; Activity (Homo sapiens [6]): 97%; Activity (Homo sapiens [10]): Active; Activity (Homo sapiens [11]): Active; Activity (Homo sapiens [12]): 94%; Activity (Homo sapiens [13]): Active
6 | 7.3 | Active | Active | 14 | inactive | OB(O)c1cc2ccccc2o1 | IC50 [14]: 0.22 µM
